From ChEMBL document CHEMBL2163339, “Discovery of potent inhibitors of human and mouse fatty acid amide hydrolases” (J Med Chem, 2012)
Active and inactive are the calls of the source.

Test system: Rattus norvegicus
Assay: Analgesic activity in rat assessed as increase in paw withdrawal threshold at 50 mg/kg, po
Assay type: functional, organism-based
Parameters: dose 50 mg/kg

## NC(=O)c1cccc(-c2cccc(OC(=O)NC3CCCCC3)c2)c1
  Activity: inactive
